Test results from patent US8822541B2, “Use of targeted nitroxide agents in mitigating or treating radiation injury” (University of Pittsburgh—Of the Commonwealth System of …, priority 2008, dated 2014).
“Also recorded” adds a separate entry of the source.

Experiments:
[1] = test system: MEF cells from Ercc1−/− mice; test: Senescence, DNA damage, apoptosis and proliferation in Ercc1−/− MEF cells under oxidative stress; format: cell-based, mouse; conditions: for γ-H2AX immunostaining: 1 μM, 48 hours; for γ-H2AX immunostaining / level of p16: 20% oxygen; for level of p16: 1 uM, 48 hrs
Protocol: Graphs showing weight over time of treated, untreated and control animals are shown in FIG. 36A-B. To assess the impact of XJB-5-131 at a cellular level, a number of experiments were carried out using mouse embryonic fibroblasts (“MEF”) cells harvested from Ercc1^−/− mouse embryos.
To test the protective activity of JP4-039, cultures of primary MEFs were prepared from Ercc1^−/− mouse embryos and grown under 20% oxygen (ambient air), which creates oxidative stress in these cells that are hypersensitive to reactive oxygen species. The cells were then either treated with a concentration of 1 uM XJB-5-131, JP4-039, JED-E71-37 or JED-E71-58, or left untreated (media), and then after 48 hrs the level of p16, a marker of irreversible cellular senescence, was measured by immunofluorescence staining.
To evaluate the protective activities of JED-E71-37 and JED-E71-58, primary MEF cells were prepared from Ercc1^−/− mice and grown under conditions of oxidative stress (ambient air, 20% oxygen). The cells were then either untreated or treated with 1 μM JED-E71-37 or JED-E71-58 for a period of 48 hours.
Next, the abilities of these two agents, as well as XJB-5-131 and JP4-039, each at a concentration of 1 μM, were tested for their ability to prevent oxidation-induced DNA double-strand breaks in cell cultures prepared, and oxidatively stressed, as in the preceding paragraph. Treated as well as untreated cells were, after 48 hours of treatment, immunostained for γ-H2AX, a marker of DNA double-strand breaks as well as cellular senescence.

[2] = test system: mice exposed to total body irradiation; test: Survival of mice after total body irradiation; format: in vivo, mouse
Protocol: Mice received intraperitoneal injection of 10 mg. per kilogram of each of the chemicals indicated in FIG. 5, then 24 hours later received 9.75 Gy total body irradiation according to published methods. Mice were followed for survival according to IACUC regulations. […] (P=0.0008).
Groups of 15 mice received intraperitoneal injection of 10 mg. per kilogram of each indicated GS-nitroxide compound or carrier (Cremphora plus alcohol at 1 to 1 ratio, then diluted 1 to 10 in distilled water). Mice received 10 mg per kilogram intra-peritoneal injection 24 hours prior to total body irradiation. Control mice received radiation alone. […] (P=0.0005)
C57BL/6NHsd female mice were irradiated to 9.5 Gy whole body irradiation. At 10 min, 30 min, 1 hr, 4 hr, or 8 hr after irradiation, the mice were injected intraperitoneally with JP4-039 (10 mg/kg). The mice were followed for the development of the irradiation induced hematopoietic syndrome.
Mice were irradiated to 9.5 Gy and injected IP 10 minutes later with concentration of JP-4-039 ranging from 0.5 mg/kg to 10 mg/kg. The mice were followed for developments of the hematopoietic syndrome. The optimal dose of JP4-039 providing the best irradiation protection is 5 mg/kg.

[3] = test system: Ercc1−/cond; K14-Cre mice; test: Photoaging after UV-B in Ercc1−/cond; K14-Cre mice; format: in vivo, mouse; conditions: 80 ug in cream daily for five days
Protocol: As a measure of the effect of XJB-5-131 on photoaging, Ercc1^−/cond; K14-Cre mice, which are missing ERCC1 only in the skin, were shaved, treated with a depilatory then irradiated with UV-B light to induce a sunburn (500 J/m^2, the median erythemal dose). Subsequently, the mice were treated with XJB-5-131 (80 ug) emulsified in a cream daily for five days.

Ercc1−/Δ mice = test: Signs of aging in progeroid Ercc1−/Δ mice; format: in vivo, mouse; conditions: 2 mg/kg ip three times per week
Protocol: To assess the effectiveness of XJB-5-131 in inhibiting degeneration and/or signs of aging, the compound was administered, over an 18-21 week period, progeroid
Ercc1^−/Δ mice, at a dose of 2 mg/kg in sunflower oil carrier (to promote solubility) administered intraperitoneally three times per week (FIG. 32). Sunflower seed oil was administered to twin Ercc1^−/Δ mice according to the same schedule as a control. The treated and control mice were monitored twice a week for weight and symptom/sign development.
FIG. 33 presents a summary table showing the results of the treatment with XJB-5-131 (“XJB” in this Figure), relative to control (sunflower seed oil) after treatment from 5 wks of life until death. The numbers indicate the average age at onset of each age-related symptom for mice treated with XJB-5-131 or vehicle only (oil) (n=5 mice per group). […] Of note, all of the signs of neurodegeneration, including dystonia, trembling, ataxia, wasting and urinary incontinence were delayed in the treated animals, providing strong evidence that XJB-5-131 protects neurons against degenerative changes caused by oxidative stress.
To assess the ability of XJB-5-131 to inhibit deterioration of intervertebral discs (an index of degenerative disease of the vertebra), the level of glycosaminoglycan in the discs in treated and control mice were measured, and the results are shown in FIG. 34. The intervertebral discs of treated mice contained approximately 30 percent more glycosaminoglycan relative to control mice, indicating inhibition of disc degeneration.

Row | SMILES | γ-H2AX immunostaining [1] | level of p16 [1] | survival of mice ([2]; 9.5 Gy TBI, 10 mg/kg ip 24 hours prior) | optimal time of delivery for radiation mitigation ([2]; 9.5 Gy, 10 mg/kg ip after irradiation) [h] | optimal dose providing the best irradiation protection ([2]; 9.5 Gy, IP 10 minutes after irradiation) [mg/kg] | survival of mice ([2]; 9.75 Gy TBI, 10 mg/kg ip 24 hours before) | SA-β galactosidase staining ([1]; 500 nM) | amount of apoptosis ([1]; 500 nM) | number of γH2AX foci ([1]; 500 nM) | appearance of UV-B irradiated skin [3] | body weight (Ercc1−/Δ mice) | glycosaminoglycan in intervertebral discs relative to control mice (Ercc1−/Δ mice) | onset of signs of neurodegeneration (dystonia, trembling, ataxia, wasting, urinary incontinence) (Ercc1−/Δ mice) | overall aging score (Ercc1−/Δ mice)
1 | CC(C)C[C@@H](/C=C/CC(=O)NC1CC(C)(C)N([O])C(C)(C)C1)NC(=O)OC(C)(C)C [JP4-039, TEMPO-4-yl-(S,E)-5-(tert-butoxycarbonylamino)-7-methyloct-3-enamide] | also effective | much lower | increases survival | 1 | 5 | significant increase in survival |  |  |  |  |  |  |  | 
2 | CC(C)C[C@@H](/C=C/[C@H](Cc1ccccc1)C(=O)N1CCC[C@H]1C(=O)N[C@H](C(=O)N[C@@H](CCCNC(=O)OCc1ccccc1)C(=O)NC1CC(C)(C)N([O])C(C)(C)C1)C(C)C)NC(=O)OC(C)(C)C [XJB-5-131] | less effective | less effective |  |  |  |  | notably less | did not reduce the amount of apoptosis | reduce the number of γH2AX foci | much more smooth and healthy | did not lose weight; also recorded: does not cause weight loss | approximately 30 percent more | delayed | significantly improved
